Toxic doses and inconclusive results are not listed.
Tested on: CD2F1 mice, L1210 leukemia ip, survival T/C
Experiment: NCI In Vivo Anticancer Drug Screen. Data for tumor model L1210 Leukemia (intraperitoneal) in CD2F1 (CDF1) mice
Details: higher = longer survival
Summary of the method: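 Read-out first: treated-group measurement over vehicle-control measurement, expressed as a ratio. Animals bore a transplanted tumor line and were dosed with compound or vehicle.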

[1] = endpoint: mean survival time, dose: 100.0 mg/kg/injection, schedule: Q01DX009 (ip), vehicle: saline with Tween-80
[2] = endpoint: mean survival time, dose: 200.0 mg/kg/injection, schedule: Q01DX009 (ip), vehicle: saline with Tween-80
[3] = endpoint: mean survival time, dose: 100.0 mg/kg/injection, schedule: Q04DX003 (ip), vehicle: saline with Tween-80
[4] = endpoint: mean survival time, dose: 200.0 mg/kg/injection, schedule: Q04DX003 (ip), vehicle: saline with Tween-80
[5] = endpoint: mean survival time, dose: 400.0 mg/kg/injection, schedule: Q04DX003 (ip), vehicle: saline with Tween-80
[6] = endpoint: mean survival time, dose: 50.0 mg/kg/injection, schedule: Q01DX009 (ip), vehicle: saline
[7] = endpoint: mean survival time, dose: 100.0 mg/kg/injection, schedule: Q01DX009 (ip), vehicle: saline
[8] = endpoint: mean survival time, dose: 200.0 mg/kg/injection, schedule: Q01DX009 (ip), vehicle: saline
[9] = endpoint: mean survival time, dose: 50.0 mg/kg/injection, schedule: Q01DX009 (ip), vehicle: saline with Tween-80

CCc1ccc2c(c1)N(CCCN(CCCl)CCCl)c1ccccc1S2
T/C (endpoint: mean survival time, dose: 18.0 mg/kg/injection, schedule: Q01DX001 (ip), vehicle: saline): 97 % of control | T/C (endpoint: mean survival time, dose: 28.0 mg/kg/injection, schedule: Q01DX001 (ip), vehicle: saline): 108 % of control | T/C (endpoint: mean survival time, dose: 40.0 mg/kg/injection, schedule: Q01DX001 (ip), vehicle: saline): 103 % of control | T/C (endpoint: mean survival time, dose: 60.0 mg/kg/injection, schedule: Q01DX001 (ip), vehicle: saline with Tween-80): 90 % of control

CN1C2CCC1CC(O)C2 (configuration not stated)
T/C (endpoint: mean survival time, dose: 100.0 mg/kg/injection, schedule: Q04DX002 (ip), vehicle: saline): 109 % of control | T/C (endpoint: mean survival time, dose: 200.0 mg/kg/injection, schedule: Q04DX002 (ip), vehicle: saline): 109 % of control | T/C (endpoint: mean survival time, dose: 400.0 mg/kg/injection, schedule: Q04DX002 (ip), vehicle: saline): 97 % of control

Cc1ccc(S(=O)(=O)NC(=O)O/N=C/c2ccccn2)cc1
T/C [1]: 100 % of control | T/C [2]: 91 % of control | T/C (endpoint: mean survival time, dose: 400.0 mg/kg/injection, schedule: Q01DX009 (ip), vehicle: saline with Tween-80): 100 % of control

CCCCCCCCCCCCCCCCCC(CCCCCCCC)CCCCCCCC
T/C (endpoint: mean survival time, dose: 100.0 mg/kg/injection, schedule: Q01DX001 (ip), vehicle: saline): 96 % of control | T/C (endpoint: mean survival time, dose: 200.0 mg/kg/injection, schedule: Q01DX001 (ip), vehicle: saline): 94 % of control | T/C (endpoint: mean survival time, dose: 400.0 mg/kg/injection, schedule: Q01DX001 (ip), vehicle: saline): 91 % of control

O=C(c1ccccc1)N(C(=O)c1ccccc1)C1CCCCC1
T/C [3]: 100 % of control | T/C [4]: 94 % of control | T/C [5]: 93 % of control

O=C(O)c1cc(Cl)nc(Cl)c1
T/C (endpoint: mean survival time, dose: 100.0 mg/kg/injection, schedule: Q01DX001 (ip), vehicle: saline with Tween-80): 94 % of control | T/C (endpoint: mean survival time, dose: 200.0 mg/kg/injection, schedule: Q01DX001 (ip), vehicle: saline with Tween-80): 97 % of control | T/C (endpoint: mean survival time, dose: 400.0 mg/kg/injection, schedule: Q01DX001 (ip), vehicle: saline with Tween-80): 92 % of control

Cc1cc(NC(=O)Oc2ccccc2)ccc1S(=O)(=O)F
T/C [6]: 98 % of control | T/C [7]: 94 % of control | T/C [8]: 98 % of control

CSc1ncnc2nn(C3OC(CO)C(O)C3O)cc12 (configuration not stated)
T/C (endpoint: mean survival time, dose: 12.5 mg/kg/injection, schedule: Q01DX005 (ip), vehicle: water): 103 % of control | T/C (endpoint: mean survival time, dose: 25.0 mg/kg/injection, schedule: Q01DX005 (ip), vehicle: water): 96 % of control | T/C (endpoint: mean survival time, dose: 50.0 mg/kg/injection, schedule: Q01DX005 (ip), vehicle: water): 103 % of control | T/C (endpoint: mean survival time, dose: 100.0 mg/kg/injection, schedule: Q01DX005 (ip), vehicle: water): 107 % of control | T/C (endpoint: mean survival time, dose: 200.0 mg/kg/injection, schedule: Q01DX005 (ip), vehicle: water): 100 % of control

COc1cccc(/C=N/NC(=O)c2ccccc2N2CCCC2)c1O
T/C (endpoint: mean survival time, dose: 12.5 mg/kg/injection, schedule: Q01DX009 (ip), vehicle: olive oil, sesame oil, peanut oil): 104 % of control | T/C (endpoint: mean survival time, dose: 25.0 mg/kg/injection, schedule: Q01DX009 (ip), vehicle: olive oil, sesame oil, peanut oil): 96 % of control | T/C (endpoint: mean survival time, dose: 50.0 mg/kg/injection, schedule: Q01DX009 (ip), vehicle: olive oil, sesame oil, peanut oil): 102 % of control | T/C (endpoint: mean survival time, dose: 100.0 mg/kg/injection, schedule: Q01DX009 (ip), vehicle: olive oil, sesame oil, peanut oil): 94 % of control | T/C (endpoint: mean survival time, dose: 200.0 mg/kg/injection, schedule: Q01DX009 (ip), vehicle: olive oil, sesame oil, peanut oil): 96 % of control

C#CC1(c2ccccc2)OCCO1
T/C (endpoint: mean survival time, dose: 12.5 mg/kg/injection, schedule: Q01DX009 (ip), vehicle: saline with Tween-80): 97 % of control | T/C (endpoint: mean survival time, dose: 25.0 mg/kg/injection, schedule: Q01DX009 (ip), vehicle: saline with Tween-80): 97 % of control | T/C [9]: 94 % of control

Cc1cn(C2CC(O)C(CO)O2)c(=O)[n]([Hg][c]2ccccc2)c1=O (configuration not stated)
T/C (endpoint: median survival time, dose: 0.79 mg/kg/injection, schedule: Q01DX005 (ip), vehicle: saline): 110 % of control | T/C (endpoint: median survival time, dose: 1.56 mg/kg/injection, schedule: Q01DX005 (ip), vehicle: saline): 103 % of control | T/C (endpoint: median survival time, dose: 3.12 mg/kg/injection, schedule: Q01DX005 (ip), vehicle: saline): 112 % of control | T/C (endpoint: median survival time, dose: 6.25 mg/kg/injection, schedule: Q01DX005 (ip), vehicle: saline): 103 % of control | T/C (endpoint: median survival time, dose: 12.5 mg/kg/injection, schedule: Q01DX005 (ip), vehicle: saline): 103 % of control

COC1OCC(O)C(NC(=O)N(C)N=O)C1O (configuration not stated)
T/C [6]: 160 % of control | T/C (endpoint: mean survival time, dose: 75.0 mg/kg/injection, schedule: Q01DX009 (ip), vehicle: saline): 186 % of control

Oc1ccccc1-c1ccccc1
T/C [9]: 98 % of control | T/C [1]: 98 % of control | T/C [2]: 98 % of control

OC1C(O)C(O)C(O)C(O)C1O (configuration not stated)
T/C [7]: 104 % of control | T/C [8]: 94 % of control | T/C (endpoint: mean survival time, dose: 400.0 mg/kg/injection, schedule: Q01DX009 (ip), vehicle: saline): 94 % of control

[O-]/[N+](=C\Cc1ccccc1)c1ccccc1
T/C (endpoint: mean survival time, dose: 100.0 mg/kg/injection, schedule: Q04DX002 (ip), vehicle: saline with Tween-80): 90 % of control | T/C (endpoint: mean survival time, dose: 200.0 mg/kg/injection, schedule: Q04DX002 (ip), vehicle: saline with Tween-80): 87 % of control | T/C (endpoint: mean survival time, dose: 400.0 mg/kg/injection, schedule: Q04DX002 (ip), vehicle: saline with Tween-80): 90 % of control

CCCCCC/C=C\C(=O)O
T/C [6]: 101 % of control | T/C [7]: 97 % of control | T/C [3]: 98 % of control | T/C [8]: 93 % of control | T/C [4]: 93 % of control | T/C [5]: 87 % of control

Source: PubChem BioAssay AID256 (DTP/NCI, 2004)
